Laboratory results: US7862838B1, “Composition and regimen for the treatment of herpes simplex and herpes zoster primarily by eliminating their pathogenetic conditions and taking into account both pathogenesis and etiology” (priority 2009, dated 2011)

Legend:
herpes zoster = test: Treatment of herpes zoster in patients, case report and general statement; type: in vivo; settings: case 5, herpes zoster around right eye
Excerpt: The average total period of treatment with the present invention is from about 2-4 days for herpes simplex and from about 3-7 days for herpes zoster. After the acute stage, crusts of the lesion form and fall off gradually, and then a red spot or spots remain for some more days. […] […] For quicker relief, the patient preferred to take the formula of the present invention along with acyclovir.

herpes simplex = test: Treatment and prevention of herpes simplex (lips, mouth) in patients, case reports and general statements; type: in vivo; settings: large dosage (200-500 mg), applicant's experience
Description: The treatment regimen of the present invention comprises: Initially, administering to the patient 2 capsules (or tablets, the same hereinafter) of said formula orally every 2-4 hours. The dosage may be higher in severe cases, and may be adjusted by the prescribing health care provider. When symptoms are alleviated (see description below), usually after 1-2 days, administer 1 capsule of said formula every 4 hours until symptoms disappear. The average total period of treatment with the present invention is from about 2-4 days for herpes simplex and from about 3-7 days for herpes zoster. After the acute stage, crusts of the lesion form and fall off gradually, and then a red spot or spots remain for some more days. The formula of the present invention can be used for therapeutic prevention of herpes simplex: Whenever the patient feels a stinging and burning sensation on the potential site, or feels roughness on the tip of the tongue, they can ingest 1-2 capsules of the formula, and repeat every 2-4 hours if necessary. […] After several such preventive measures, recurrence of herpes simplex will be less and less likely, or latent for a sustained period. […] Patient stated that they had had recurrent maceration in the angles of the mouth since childhood. […]

SMILES	pain relief before treatment with the formula (herpes zoster)	effect on the course of herpes simplex (herpes simplex)
CC(C)Cc1ccc(C(C)C(=O)O)cc1 (stereo not drawn) [Ibuprofen]	effective only for a short time	–
Nc1nc2c(ncn2COCCO)c(=O)[nH]1 [acyclovir]	got some relief	–
O=C1O[C@H]([C@@H](O)CO)C(O)=C1O [vitamin C]	–	made herpes simplex worse
